Laboratory results: patent US5488051A, “Substituted 5,6-dihydro-5-oxo-1,4-dithiino-(2,3-d)-pyridazine-2,3-dicarbonitriles, compositions containing them and their use as antimicrobials” (The Dow Chemical Company, priority 1994, dated 1996)
Values after ≈ are worked out from the molar mass of the structure shown. Like-named read-outs stand apart in the source and are kept apart here.

Legend:
Bacillus subtilis (Bs) = experiment: MIC for Bacillus subtilis, nutrient agar; assay type: cell-based, Bacillus subtilis ATCC 8473; settings: 30° C., 48 hours, read-out: Minimum Inhibitory Concentration (MIC), Bs
Method: (§1) The minimum inhibitory concentration (MIC) for the compounds listed in Table I is determined for 9 bacteria, using nutrient agar; and 7 yeast and fungi, using malt yeast agar. A one percent solution of the test compound is prepared in a mixture of acetone and water.
(§2) Nutrient agar is prepared at pH 6.8, representing a neutral medium, and at pH 8.2, representing an alkaline medium. The nutrient agars are prepared by adding 23 g of nutrient agar to one-liter of deionized water. In addition, the alkaline medium is prepared by adjusting a 0.04M solution of N-[tris-(hydroxymethyl)methyl]-glycine buffered deionized water with concentrated sodium hydroxide to a pH of 8.5.
(§3) The test tubes containing the malt yeast agar and the nutrient agar are cooled in a water bath until the temperature of the agar is 48° C. Then, an appropriate amount of the one percent solution of the test compound is added (except in the controls where no compound is added) to the respective test tubes so that the final concentrations are zero (0), 1.0, 2.5, 5, 10, 25, 50, 100, 250 and 500 parts per million of the test compound in each of the respective type of agar. The contents of each of the test tubes are then transferred to separate petri plates. After drying for 24 hours, the petri plates containing nutrient agar are inoculated with bacteria and those containing malt yeast agar are inoculated with yeast and fungi.
(§4) The inoculation with bacteria is accomplished by using the following procedure. Twenty-four hour-cultures of each of the bacteria are prepared by incubating the respective bacteria in tubes containing nutrient broth for 24 hours at 30° C. in a shaker. Dilutions of each of the 24 hour-cultures are made so that nine separate suspensions (one for each of the nine test bacteria) are made, each containing 10^8 colony forming units (CFU) per mL of suspension of a particular bacteria. Aliquots of 0.3 mL of each of the bacterial suspensions are used to fill the individual wells of Steer's Replicator. For each microbial suspension, 0.3 mL was used to fill three wells (i.e., three wells of 0.3 mL each) so that for the nine different bacteria, 27 wells are filled. The Steer's Replicator is then used to inoculate both the neutral and alkaline pH nutrient agar petri plates.
(§5) The inoculated petri plates are incubated at 30° C. for 48 hours and then read to determine if the test compound which is incorporated into the agar prevented growth of the respective bacteria.
(§6) Table II list the bacteria, yeast and fungi used in the MIC test described above along with their respective American Type Culture Collection (ATCC) identification numbers.

[1] = system: Enterobacter aerogenes (Ea); experiment: MIC for Enterobacter aerogenes, nutrient agar; assay type: cell-based, Enterobacter aerogenes ATCC 13048; settings: Klebsiella aerogenes, nutrient agar, 30° C., 48 hours, read-out: Minimum Inhibitory Concentration (MIC), Ea
Method: as §1, §2, §3, §4, §5, §6

Escherichia coli (Ec) = experiment: MIC for Escherichia coli, nutrient agar; assay type: cell-based, Escherichia coli ATCC 11229; settings: 30° C., 48 hours, read-out: Minimum Inhibitory Concentration (MIC), Ec
Method: as §1, §2, §3, §4, §5, §6

[2] = system: Klebsiella pneumonias (Kp); experiment: MIC for Klebsiella pneumonias, nutrient agar; assay type: cell-based, Klebsiella pneumonias ATCC 8308; settings: 30° C., 48 hours, read-out: Minimum Inhibitory Concentration (MIC), Kp
Method: as §1, §2, §3, §4, §5, §6

Proteus vulgaris (Pv) = experiment: MIC for Proteus vulgaris, nutrient agar; assay type: cell-based, Proteus vulgaris ATCC 881; settings: 30° C., 48 hours, read-out: Minimum Inhibitory Concentration (MIC), Pv
Method: as §1, §2, §3, §4, §5, §6

[3] = system: Pseudomonas aeruginosa (PRD-10); experiment: MIC for Pseudomonas aeruginosa PRD-10, nutrient agar; assay type: cell-based, Pseudomonas aeruginosa ATCC 15442; settings: 30° C., 48 hours, read-out: Minimum Inhibitory Concentration (MIC), PRD
Method: as §1, §2, §3, §4, §5, §6

[4] = system: Pseudomonas aeruginosa (Pa); experiment: MIC for Pseudomonas aeruginosa, nutrient agar; assay type: cell-based, Pseudomonas aeruginosa ATCC 10145; settings: 48 hours, read-out: Minimum Inhibitory Concentration (MIC), Pa
Method: as §1, §2, §3, §4, §5, §6

Salmonella choleraesuis = experiment: MIC for Salmonella choleraesuis, nutrient agar; assay type: cell-based, Salmonella choleraesuis ATCC 10708; settings: Salmonella enterica, 30° C., 48 hours, read-out: Minimum Inhibitory Concentration (MIC), SC
Method: as §1, §2, §3, §4, §5, §6

[5] = system: Staphylococcus aureus (Sa); experiment: MIC for Staphylococcus aureus, nutrient agar; assay type: cell-based, Staphylococcus aureus ATCC 6538; settings: 30° C., 48 hours, read-out: Minimum Inhibitory Concentration (MIC), Sa
Method: as §1, §2, §3, §4, §5, §6

Aspergillus niger (An) = experiment: MIC for Aspergillus niger, malt yeast agar; assay type: cell-based, Aspergillus niger ATCC 16404; settings: malt yeast agar; 30° C., 72 hours for fungi; read-out: Minimum Inhibitory Concentration (MIC), An
Method: as §1
(§7) Malt yeast agar is prepared by adding 3 g yeast extract and 45 g malt agar per liter of deionized water. The specific agar is dispensed in 30 mL aliquots into 25×200 mm test tubes, capped and autoclaved for 15 minutes at 115° C.
as §3
(§8) The inoculation with the yeast and fungi is accomplished as follows. Cultures of yeast and fungi are incubated for seven days on malt yeast agar at 30° C. These cultures are used to prepare suspensions by the following procedure. A suspension of each organism is prepared by adding 10 mL of sterile saline and 10 microliters of octylphenoxy polyethoxy ethanol to the agar slant of yeast or fungi. The sterile saline/octylphenoxy polyethoxy ethanol solution is then agitated with a sterile swab to suspend the microorganism grown on the slant. Each resulting suspension is diluted into sterile saline (1 part suspension: 9 parts sterile saline). Aliquots of these dilutions are placed in individual wells of Steer's Replicator and petri plates inoculated as previously described. The petri plates are incubated at 30° C. and read after 48 hours for yeast and 72 hours for fungi.
as §6

Candida albicans (Ca) = experiment: MIC for Candida albicans, malt yeast agar; assay type: cell-based, Candida albicans ATCC 10231; settings: malt yeast agar; 30° C., 48 hours for yeast; read-out: Minimum Inhibitory Concentration (MIC), Ca
Method: as §1, §7, §3, §8, §6

[6] = system: Penicillium chrysogenum (Pc); experiment: MIC for Penicillium chrysogenum, malt yeast agar; assay type: cell-based, Penicillium chrysogenum ATCC 9480; settings: malt yeast agar; 30° C., 72 hours for fungi; read-out: Minimum Inhibitory Concentration (MIC), PC
Method: as §1, §7, §3, §8, §6

Saccharomyces cerevisiae = experiment: MIC for Saccharomyces cerevisiae, malt yeast agar; assay type: cell-based, Saccharomyces cerevisiae ATCC 4105; settings: malt yeast agar, 30° C., 48 hours for yeast, read-out: Minimum Inhibitory Concentration (MIC), Sc
Method: as §1, §7, §3, §8, §6

Trichoderma viride (Tv) = experiment: MIC for Trichoderma viride, malt yeast agar; assay type: cell-based, Trichoderma viride ATCC 8678; settings: malt yeast agar; 30° C., 72 hours for fungi; read-out: Minimum Inhibitory Concentration (MIC), Tv
Method: as §1, §7, §3, §8, §6

[7] = system: Aureobasidium pullulan (Ap); experiment: MIC for Aureobasidium pullulan, malt yeast agar; assay type: cell-based, Aureobasidium pullulan ATCC 16622; settings: malt yeast agar; 30° C.; 48 hours for yeast and 72 hours for fungi; read-out: Minimum Inhibitory Concentration (MIC), Ap
Method: as §1, §7, §3, §8, §6

Fusarium oxysporum (Fo) = experiment: MIC for Fusarium oxysporum, malt yeast agar; assay type: cell-based, Fusarium oxysporum ATCC 48112; settings: malt yeast agar; 30° C., 72 hours for fungi; read-out: Minimum Inhibitory Concentration (MIC), Fo
Method: as §1, §7, §3, §8, §6

SMILES | MIC (Bacillus subtilis (Bs); pH 6.8, nutrient agar) | MIC (Bacillus subtilis (Bs); pH 8.2, nutrient agar) | MIC ([1]; pH 6.8) | MIC ([1]; pH 8.2) | MIC (Escherichia coli (Ec); pH 6.8, nutrient agar) | MIC (Escherichia coli (Ec); pH 8.2, nutrient agar) | MIC ([2]; pH 6.8, nutrient agar) | MIC ([2]; pH 8.2, nutrient agar) | MIC (Proteus vulgaris (Pv); pH 6.8, nutrient agar) | MIC (Proteus vulgaris (Pv); pH 8.2, nutrient agar) | MIC ([3]; pH 6.8, nutrient agar) | MIC ([3]; pH 8.2, nutrient agar) | MIC ([4]; pH 8.2, 30° C.) | MIC (Salmonella choleraesuis; pH 6.8, nutrient agar) | MIC (Salmonella choleraesuis; pH 8.2, nutrient agar) | MIC ([5]; pH 6.8, nutrient agar) | MIC ([5]; pH 8.2, nutrient agar) | MIC (Aspergillus niger (An)) | MIC (Candida albicans (Ca)) | MIC [6] | also measured
N#CC1=C(C#N)Sc2c(cnn(-c3ccc(Cl)cc3Cl)c2=O)S1 [G, 5,6-dihydro-6-(2,4-dichlorophenyl)-5-oxo-1,4-dithiino-(2,3-d)-pyridazine-2,3-dicarbonitrile] | 25 µg/mL (≈ 65.9 µM) | 250 µg/mL (≈ 659 µM) | > 500 µg/mL | > 500 µg/mL | 250 µg/mL (≈ 659 µM) | > 500 µg/mL | 250 µg/mL (≈ 659 µM) | 500 µg/mL (≈ 1320 µM) | 500 µg/mL (≈ 1320 µM) | > 500 µg/mL | 500 µg/mL (≈ 1320 µM) | > 500 µg/mL | > 500 µg/mL | 500 µg/mL (≈ 1320 µM) | > 500 µg/mL | 100 µg/mL (≈ 264 µM) | 250 µg/mL (≈ 659 µM) | 100 µg/mL (≈ 264 µM) | 50 µg/mL (≈ 132 µM) | 100 µg/mL (≈ 264 µM) | MIC (Saccharomyces cerevisiae): 50 µg/mL (≈ 132 µM); MIC (Trichoderma viride (Tv)): 250 µg/mL (≈ 659 µM); MIC [7]: 50 µg/mL (≈ 132 µM); MIC (Fusarium oxysporum (Fo)): 100 µg/mL (≈ 264 µM)
N#CC1=C(C#N)Sc2c(cnn(-c3ccc([N+](=O)[O-])cc3)c2=O)S1 [H, 5,6-dihydro-6-(4-nitrophenyl)-5-oxo-1,4-dithiino-(2,3-d)-pyridazine-2,3-dicarbonitrile] | > 500 µg/mL | > 500 µg/mL | > 500 µg/mL | > 500 µg/mL | > 500 µg/mL | > 500 µg/mL | > 500 µg/mL | > 500 µg/mL | > 500 µg/mL | > 500 µg/mL | > 500 µg/mL | > 500 µg/mL | > 500 µg/mL | > 500 µg/mL | > 500 µg/mL | > 500 µg/mL | > 500 µg/mL | > 500 µg/mL | > 500 µg/mL | > 500 µg/mL | MIC ([4]; pH 6.8, 30° C.): > 500 µg/mL; MIC (Saccharomyces cerevisiae): > 500 µg/mL; MIC (Trichoderma viride (Tv)): > 500 µg/mL; MIC [7]: > 500 µg/mL; MIC (Fusarium oxysporum (Fo)): > 500 µg/mL
N#CC1=C(C#N)Sc2c(cnn(Cc3ccccc3)c2=O)S1 [I, 5,6-dihydro-6-(phenylmethyl)-5-oxo-1,4-dithiino-(2,3-d)-pyridazine-2,3-dicarbonitrile] | < 10 µg/mL | 100 µg/mL (≈ 308 µM) | > 500 µg/mL | > 500 µg/mL | > 500 µg/mL | > 500 µg/mL | 100 µg/mL (≈ 308 µM) | > 500 µg/mL | 100 µg/mL (≈ 308 µM) | > 500 µg/mL | > 500 µg/mL | > 500 µg/mL | > 500 µg/mL | 250 µg/mL (≈ 771 µM) | > 500 µg/mL | 50 µg/mL (≈ 154 µM) | > 500 µg/mL | 25 µg/mL (≈ 77.1 µM) | < 10 µg/mL | 25 µg/mL (≈ 77.1 µM) | MIC ([4]; pH 6.8, 30° C.): 250 µg/mL (≈ 771 µM); MIC (Saccharomyces cerevisiae): < 10 µg/mL; MIC (Trichoderma viride (Tv)): 25 µg/mL (≈ 77.1 µM); MIC [7]: < 10 µg/mL; MIC (Fusarium oxysporum (Fo)): < 10 µg/mL
N#CC1=C(C#N)Sc2c(cnn(Cc3ccc(Cl)cc3)c2=O)S1 [J, 5,6-dihydro-6-((4-chlorophenyl)methyl)-5-oxo-1,4-dithiino-(2,3-d)-pyridazine-2,3-dicarbonitrile] | < 10 µg/mL | 50 µg/mL (≈ 139 µM) | > 500 µg/mL | > 500 µg/mL | 100 µg/mL (≈ 279 µM) | > 500 µg/mL | > 500 µg/mL | > 500 µg/mL | 250 µg/mL (≈ 697 µM) | > 500 µg/mL | > 500 µg/mL | > 500 µg/mL | > 500 µg/mL | > 500 µg/mL | > 500 µg/mL | 25 µg/mL (≈ 69.7 µM) | 100 µg/mL (≈ 279 µM) | < 10 µg/mL | < 10 µg/mL | < 10 µg/mL | MIC ([4]; pH 6.8, 30° C.): > 500 µg/mL; MIC (Saccharomyces cerevisiae): < 10 µg/mL; MIC (Trichoderma viride (Tv)): 25 µg/mL (≈ 69.7 µM); MIC [7]: < 10 µg/mL; MIC (Fusarium oxysporum (Fo)): < 10 µg/mL
